Data set [1] is described as follows: In vitro liver microsome stability test. The settings on record: in vitro mouse or human liver microsomes. Type of data set: in vitro ADME. The protocol: Ketanserin was selected as the reference compound. The specific method is as follows:
Prepare 0.1MK3PO4 (pH 7.4) buffer and 3×NADPH stock solution (6 mM, 5 mg/mL), and preheat in a 37° C. water bath; configure the test compound and control compound spiking solution: 5 μL compound stock solution ([…]) was added to 95 μL acetonitrile; Configuration of 1.5 μM spiking solution in microsomes (0.75 mg/mL): 1.5 μL of spiking solution and 18.75 μL of liver microparticles solution (20 mg/mL) were added to 479.75 μL of K3PO4 buffer; add 30 μL spiking solution in microsomes to the multi-well plate, and incubated at 37° C. for 5 minutes; add 15 μL NADPH stock solution to each well to start the reaction, and timing; the reaction was terminated by adding 150 μL of acetonitrile solution containing IS at 0 min, 5 min, 15 min, 30 min and 45 min, respectively; shake for 10 min and then centrifuge at 6000 rpm for 15 min; take 80 μL of the supernatant from each well for LC/MS detection and calculate T1/2.
Note: The mouse and human liver microsomes used in the experiments were purchased from Xenotech.

Data set [2] is described as follows: Mouse pharmacokinetics (PK) test. Format: in vivo, ICR mice. To be noted: for AUC(0-inf) / bioavailability / half-life / Cmax / clearance / Vd: ICR, plasma; for bioavailability: read-out: Bioavailability F; for half-life: read-out: Half-life t 1/2 (converted); for Cmax: read-out: Peak blood concentration C max; for clearance: read-out: Eliminate Cl; for Vd: read-out: Steady state apparent volume of distribution Vss. The method, then: (§1) Take experimental mice and apply an appropriate amount of the test compound to them according to the dosage and administration route shown in the figure. Three experimental mice were selected for three parallel experiments for each compound and each administration method. Numbers 101, 102 and 103 were in the same group, 201, 202 and 203 were in one group, and 301, 302 and 303 were in one group.
(§2) At the corresponding time point, take 10 μL of rat plasma sample into a centrifuge tube, add 100 μL of methanol:acetonitrile (1:1, v/v), perform […] for 1 min, centrifuged (14000 rpm) for 5 min, and take 50 μL of the supernatant, mixed with water in equal volumes, mixed uniformly by […] and then analyzed.
(§3) Note: The mice used in the PK experiment are ICR mice of SPF, purchased from Sino-British SIPPR Lab Animal Ltd, Shanghai, China. The rats used in the PK experiments were SD rats of SPF, purchased from Sino-British SIPPR Lab Animal Ltd, Shanghai, China.

The nature of data set [3]: Rat pharmacokinetics (PK) test. Format: in vivo, SD rats. To be noted: for bioavailability: read-out: Bioavailability F; for half-life: read-out: Half-life t 1/2 (converted); for Cmax: read-out: Peak blood concentration C max. The method, then:
as §1, §2, §3

The subject of another data set is HEK293Tmtkeima cells. As to the kind of experiment: Functional test of mitophagy inducer (mtKeima imaging, with or without CCCP-induced mitochondrial damage). Type of data set: cell-based, Human. The settings on record: for Ability to selectively induce autophagy in damaged mitochondria (FIG. 2): 5 uM or 10 uM CCCP versus no CCCP treatment; for The ability of selection to induce autophagy in damaged mitochondria: HEK293Tmtkeima cells, 5 uM or 10 uM CCCP to induce mitochondrial damage, number of cells in which damaged mitophagy occurs/number of all cells. The protocol: Group 1: Human embryonic kidney transformed cells HEK293Tmtkeima cells were treated with 0 μM, 1.25 μM, 2.5 μM, 5 μM and 10 μM CCCP respectively, and seeded in a 96-well black ELISA PLATE at 1.5*10^5 cells/ml, 100 μL per well. Compound I-2 was added after 25 hours, and 3 replicates were set. At 37° C., under 5% CO2 incubation conditions, photographs were taken every few hours with biotek cytation 5 for a total of 20 hours, with the bright field as the focusing channel, and 9 images were taken per hole, and the images were processed using the instrument software.
Group 2: Human embryonic kidney transformed cells HEK293Tmtkeima cells were seeded in a 96-well black ELISA PLATE at […], 100 μL per well; compounds I-1˜I-44 and UMI-77 were added after 25 hours, set up 3 replicates; under 37° C., 5% CO2 culture conditions, use biotek every few hours Cytation 5 was used to take photos, a total of 20 hours of shooting. In another group of cells under the same conditions, human embryonic kidney-transformed cells HEK293Tmtkeima cells were seeded in a 96-well black enzyme plate at 1.5*10^5 cells/ml, 100 μl per well; after 24 hours, 5 uM or 10 uM CCCP (Carbonyl cyanide) was first added 3-chlorophenylhydrazone) to induce mitochondrial damage, then add I-1˜I-44, UMI-77 1 hour later, set up 3 repetitions; under 37° C., 5% CO2 culture conditions, pictures were taken every few hours with biotek cytation 5, photographs were taken for 20 hours. Another group of human embryonic kidney transformed cells HEK293Tmtkeima cells was seeded at 1.5*10^5 cells/ml in 96-well black ELISA PLATE at 100 μl per well under the same conditions, 24 hours later 5 uM or 10 uM CCCP (Carbonyl cyanide 3-chlorophenylhydrazone) was first added to induce mitochondrial damage, after 1 hour then add I-1 to I-44, UMI-77 and set up 3 replicates. At 37° C., under 5% CO2 incubation conditions, pictures were taken every few hours with biotek cytation 5, photographs were taken for 20 hours, with the bright field as the focusing channel for both groups, and 9 images were taken per hole, and the images were processed using the instrument software.

A short description of data set [4]: In vitro plasma stability test. The settings on record: 37° C. Type of data set: in vitro ADME. The method, then: Procaine was selected as the reference compound. The specific method is as follows:
Incubated in a water bath at 37° C. for 0, 5, 15 and 30 minutes and 1, 2, 4, 6, 10, 24 and 48 hours. Take 200 μL and add 3 times the volume of chromatography grade acetonitrile to precipitate the protein. Vortex shaking for 5 minutes, centrifuge, take 200 μL of the supernatant, HPLC injection and analysis. The liquid phase conditions are the same as before.

The mark [5] stands for this setting: IP intraperitoneal injection, 3 mg/kg.
Where [6] appears, read: IV intravenous injection, 1 mg/kg.
Setting [7] is: SD, plasma, IP intraperitoneal injection (3 mg/kg).
The mark [8] stands for this setting: SD, plasma, IV intravenous injection (1 mg/kg).
Where [9] appears, read: SD, plasma, PO oral gavage (10 mg/kg).

As to `O=C(O)C[S+]([O-])c1cc(NS(=O)(=O)c2ccc(Br)cc2)c2ccccc2c1O` (stereo not drawn) [Compound I-1], the “Liver microsomal stability (elimination half-life T 1/2, FIG. 3)” value (shortened to “Liver microsomal stability”) in data set [1] is listed as “superior liver microsomal stability”. Besides, the “PK properties in the mouse PK experiment (in words)” value in data set [2] is on record as “good PK properties”. Also, the AUC(0-inf) was 4420 ng·h/mL in data set [2] (setting [5]); 714 ng·h/mL in data set [2] (setting [6]); 3800 ng·h/mL in data set [2] (PO oral gavage, 10 mg/kg); 18300 ng·h/mL in data set [3] (setting [7]); 3720 ng·h/mL in data set [3] (setting [8]); 6070 ng·h/mL in data set [3] (setting [9]). In addition, the bioavailability stood at 247% in data set [2] (setting [5]); 60.4% in data set [2] (PO oral gavage, 10 mg/kg); 165% in data set [3] (setting [7]); 16.3% in data set [3] (setting [9]). For the same molecule, the half-life was 0.79 h in data set [2] (setting [5]); 1.25 h in data set [2] (setting [6]); 1.96 h in data set [2] (PO oral gavage, 10 mg/kg); 3.34 h in data set [3] (setting [7]); 1.93 h in data set [3] (setting [8]); 0.96 h in data set [3] (setting [9]). Also, the Cmax in data set [2] (setting [5]) was found to be 3740 ng/mL; in data set [2] (setting [6]), 832 ng/mL; in data set [2] (PO oral gavage, 10 mg/kg) it was 1350 ng/mL; in data set [3] (setting [7]) it was 5440 ng/mL; in data set [3] (setting [8]), 1900 ng/mL; in data set [3] (setting [9]) it was 1550 ng/mL. In addition, the clearance in data set [2] (setting [6]) came out at 24.9 mL/min/kg; in data set [3] (SD, plasma, IV intravenous injection (1 mg/kg), read-out: Eliminate Cl), 4.91 mL/min/kg. Further, the Vd in data set [2] (setting [6]) was 2.3 L/kg; in data set [3] (SD, plasma, IV intravenous injection (1 mg/kg), read-out: Steady state apparent volume of distribution V ss) it was 0.63 L/kg. The “PK properties in the rat PK experiment (in words)” value in data set [3] was “good PK properties”. Also, the “Ability to selectively induce autophagy in damaged mitochondria (FIG. 2)” value (“Ability to selectively induce autophagy” below) in the data set with HEK293Tmtkeima cells was “more likely to induce autophagy in damaged mitochondria”. The “The ability of selection to induce autophagy in damaged mitochondria” value (“The ability of selection” for short) in the data set with HEK293Tmtkeima cells is “+++ (strong ability to selectively induce autophagy in damaged mitochondria (number of cells in which damaged mitophagy occurs/number of all cells >0.30))”. For the same molecule, the “Plasma stability (half-life, FIG. 4)” value in data set [4] was “superior plasma stability”.

`CN(c1cc([S+]([O-])CC(=O)O)c(O)c2ccccc12)S(=O)(=O)c1ccc(Br)cc1` (stereo not drawn) [Compound I-2]: the “Liver microsomal stability” value in data set [1] was “superior liver microsomal stability”. Further, in data set [2], the “PK properties in the mouse PK experiment (in words)” value is on record as “good PK properties”. Further, in data set [2] (setting [6]), the AUC(0-inf) stood at 429 ng·h/mL, the clearance was determined as 39.3 mL/min/kg, the half-life is 0.98 h and the Cmax worked out at 947 ng/mL. Moreover, the Vd in data set [2] (setting [6]) worked out at 1.39 L/kg. In data set [2] (PO oral gavage, 10 mg/kg), the area under the curve AUC(0-inf) was 1050 ng·h/mL, the bioavailability was 24.1%, the half-life is 1.37 h and the Cmax stood at 495 ng/mL. Moreover, in the data set on HEK293Tmtkeima cells, the “Ability to selectively induce autophagy” value is “more likely to induce autophagy in damaged mitochondria” and the “The ability of selection” value is listed as “++ (moderate ability to selectively induce autophagy in damaged mitochondria (number of cells in which damaged mitophagy occurs/number of all cells in the range of 0.2 to 0.3))”. Moreover, the “Induction of mitophagy in cells with undamaged mitochondria (FIG. 1)” value in the data set on HEK293Tmtkeima cells (cells treated with 0 μM CCCP) is given as “unable to induce autophagy in non-damaged mitochondria”. Besides, the “Induction of mitophagy in cells with mitochondrial damage (FIG. 1)” value in the data set on HEK293Tmtkeima cells (cells with CCCP (10 μM) versus without CCCP) is “selectively induces autophagy in damaged mitochondria”. Also, the “Plasma stability (half-life, FIG. 4)” value in data set [4] is reported as “superior plasma stability”.

For the molecule `O=C(O)C[S+]([O-])c1cc(NC(=O)c2cccc(Br)c2)c2ccccc2c1O` (stereo not drawn) [Compound I-35-1], the “The ability of selection” value in the data set with HEK293Tmtkeima cells was “+ (weak ability to selectively induce autophagy in damaged mitochondria (number of cells in which damaged mitophagy occurs/number of all cells in the range of 0.1 to 0.2))”.

As for `Cn1cc(S(=O)(=O)Nc2cc([S+]([O-])CC(=O)CO)c(O)c3ccccc23)cn1` (stereo not drawn) [Compound I-36], the “The ability of selection” value in the data set on HEK293Tmtkeima cells was “++ (moderate ability to selectively induce autophagy in damaged mitochondria (number of cells in which damaged mitophagy occurs/number of all cells in the range of 0.2 to 0.3))”.

As for `Cc1noc(C)c1S(=O)(=O)Nc1cc([S+]([O-])CC(=O)O)c(O)c2ccccc12` (stereo not drawn) [Compound I-37], the “The ability of selection” value with HEK293Tmtkeima cells is reported as “++ (moderate ability to selectively induce autophagy in damaged mitochondria (number of cells in which damaged mitophagy occurs/number of all cells in the range of 0.2 to 0.3))”.

In the case of `O=C(O)CS(=O)(=O)c1cc(NS(=O)(=O)c2ccc(Br)cc2)c2ccccc2c1O` [Compound I-42], the “The ability of selection” value in the data set on HEK293Tmtkeima cells is “+ (weak ability to selectively induce autophagy in damaged mitochondria (number of cells in which damaged mitophagy occurs/number of all cells in the range of 0.1 to 0.2))”.

For `O=C(O)CSc1cc(NS(=O)(=O)c2ccc(Br)cc2)c2ccccc2c1O` [UMI-77, reference compound], in data set [1], the “Liver microsomal stability” value is “unstable in the liver microsomal environment and will be rapidly eliminated”. The “PK properties in the mouse PK experiment (in words)” value in data set [2] is “rapidly cleared”. Besides, in data set [2] (setting [6]), the AUC(0-inf) was 140 ng·h/mL, the clearance was found to be 131 mL/min/kg, the Cmax was determined as 314 ng/mL and the Vd is 18.4 L/kg. In data set [2] (PO oral gavage, 10 mg/kg), the total exposure AUC(0-inf) amounted to 162 ng·h/mL, the bioavailability turned out to be 8.64% and the Cmax was 102 ng/mL. Moreover, the “Ability to selectively induce autophagy” value in the data set on HEK293Tmtkeima cells is on record as “unable to selectively induce autophagy in damaged mitochondria”. Also, the “Plasma stability (half-life, FIG. 4)” value in data set [4] is “unstable in the plasma environment and will be rapidly eliminated”.

Values taken from patent publication US12151999B2, “Small molecule compounds having naphthylamine structure and application thereof” (Hangzhou PhecdaMed Co., Ltd., priority 2021, dated 2024).
